Assay results from patent US12269902B2, “Peptide compounds and peptide conjugates for the treatment of cancer through receptor-mediated chemotherapy” (TRANSFERT PLUS, S.E.C., priority 2015, dated 2025).
One block for each compound: values may come before it. Non-standard residues stand in square brackets, D forms with d. Residues, ends and D or L forms follow the SMILES beside them. *: point of attachment. X1 = CC(=O)O[C@@]12CO[C@@H]1C[C@H](O)[C@@]1(C)C(=O)[C@H](O)C3=C(C)[C@@H](OC(=O)[C@H](OC(=O)CCC(=O)*)[C@@H](NC(=O)OC(C)(C)C)c4ccccc4)C[C@@](O)([C@@H](OC(=O)c4ccccc4)[C@H]21)C3(C)C; Nle = CCCC[C@H](N)C(=O)O

Assays:
[1] = system: ES-2 ovarian cancer cells; experiment: [3H]-Thymidine incorporation cell proliferation assay, ES-2; assay type: cell-based; settings: ES-2 (Ovary)
Protocol: (§1) The effect of the Docetaxel-Katana peptide conjugate on various cell line proliferations was evaluated and compared to unconjugated Docetaxel (Table 4). IC50 values obtained for the Docetaxel-Katana peptide conjugate were very similar to those of Docetaxel in the cancer cells tested.
(§2) The phytochemical Curcumin, unconjugated and conjugated, was also tested on cancer cell proliferation (FIG. 28). Breast cancer cells (MDA-MB231) were incubated with increasing concentrations of KBC106 or curcumin. After 72 hrs, thymidine incorporation assay was performed to assess the anti-proliferative properties of both molecules. IC50 values were extracted from the anti-proliferative curves. […] Proliferation assay was also performed using different types of cancer cells (ovarian, breast, skin and colorectal cancer cells). IC50 values were calculated from the anti-proliferation curves. In all cases, the Curcumin conjugate (KBC106) had stronger anti-proliferative activity (9-100 fold) than unconjugated Curcumin, as shown in Table 6 below.
(§3) Cancer cells were cultured in 96-well white plates (Perkin Elmer). They were synchronized for 24 hours in serum-deprived medium. After incubation of cells with unconjugated drugs (docetaxel, cabazitaxel, doxorubicin) or with drug-Katana peptide conjugates for 2 or 3 days, all media was aspirated and cells were pulse-labeled for 4 hours at 37° C./[…]/5% CO2 with media containing 2.5 μCi/mL [methyl-3H] thymidine (Perkin Elmer). Cells were washed, fixed, and dried before addition of scintillation fluid (Microscint 0, Perkin Elmer). After 24 hours, cell-associated tritium was quantified by counting on a plate reader (TopCount, Perkin Elmer). Incorporated [3H] thymidine was plotted for each drug concentration.

[2] = system: SK-MEL-28 skin cancer cells; experiment: [3H]-Thymidine incorporation cell proliferation assay, SK-MEL-28; assay type: cell-based; settings: Homo sapiens
Protocol: as §1, §2, §3

A-375 skin cancer cells = experiment: [3H]-Thymidine incorporation cell proliferation assay, A-375; assay type: cell-based; settings: Homo sapiens
Protocol: as §1, §2, §3

[3] = free Docetaxel; Assessment report for Docetaxel Teva, European Medicines Agency; cited from earlier work
[4] = system: MDA-MB231 breast cancer cells; experiment: MDA-MB231 luciferase breast subcutaneous tumors (Docetaxel, KBA106); assay type: in vivo, mice
Protocol: 27A. Mice were implanted in the flank with MDA-MB231 breast cancer cells expressing luciferase. Tumor growth by luminescence was visualized using an in vivo imaging system from Carestream. Mice were treated with vehicle, Docetaxel (15 mg/kg/week) or KBA106 (50 mg/kg/week). Initial luminescence intensity was subtracted. 27B. […] No value was available (N/A) for the mice treated with the vehicle since all mice were then sacrificed because the size of their tumors reached the endpoint limit. 27C. Tumor luminescence results were expressed in terms of percentage of progression on D74 post-treatment compared to initial tumor luminescence. In the Docetaxel group, the tumor luminescence increased by 100% whereas in the KBA106 treated group the luminescence decreased by 100%.
Residual tumor burden was assessed in Docetaxel and Docetaxel conjugate treated mice (FIG. 27). Mice were implanted in the flank with MDA-MB231 breast cancer cells expressing luciferase. Tumor growth by luminescence was visualized using an in vivo imaging system from Carestream. Mice were treated with vehicle, Docetaxel (15 mg/kg/week) or KBA106 (50 mg/kg/week).

SKOV3 cancer cells = experiment: SKOV3 luciferase subcutaneous xenograft tumour model (Docetaxel, KBA-105); settings: mice, Docetaxel 10 mg/kg/week, 3 treatments
Protocol: Mice were implanted in the flank with SKOV3 cancer cells. Tumor growth was monitored by luminescence using the Near Infrared imaging system from Carestream.
Results are expressed in terms of luminescence intensity as a function of post-treatment days.
To further evaluate the in vivo efficacy of the Katana-drug conjugate, SKOV3 cancer cells expressing luciferase were implanted in the mouse flank. […] Tumour imaging was performed on different days by injecting the luciferase substrate luciferin and by using the Xtreme imaging system from Carestream.
Luminescence was then quantified and plotted as a function of days after implantation (FIG. 23).
SKOV3 cancer cells (2.5×10^6 cells) expressing luciferase were implanted in the right flank of mice. Tumour growth was monitored using near infrared (NiR) imaging system from Carestream by injecting the luciferase substrate luciferin. […] Luminescence associated with tumour growth of SKOV3/Luc cancer cells was quantified as a function of post-treatment days with the instrument software.

P-gp (MDR1) = P-gp (MDR1) (Homo sapiens, UniProt P08183); experiment: Drug accumulation in MDCK-MDR1 cells with or without Cyclosporin A; settings: 50 nM, 1 hr, 37° C., CsA 10 μM
Protocol: 6A. […] 6B. MDCK-MDR1 cells were incubated with 50 nM of either [^14C]-Doxorubicin or [^125I]-Katana peptide-Doxorubicin conjugate (KBB106) for 1 hr at 37° C. in the presence or absence of CsA (10 μM). After the incubation, cells were washed and radioactivity accumulated in cells was quantified. The results were expressed in terms of uptake fmol/mg of protein.
In order to determine whether the anticancer drug-Katana-peptide conjugates could also be P-gp substrates, MDCK-transfected cells with human MDR1 were used (MDCK-MDR1).
Cells were washed three times with PBS and preincubated for 30 min at 37° C. in culture medium without serum with or without the P-gp inhibitor Cyclosporin A (10 μM). Radiolabelled molecules (50 nM) were then added for 60 min. The cells were rapidly washed three times with ice-cold PBS and then lysed in 500 µL of 0.1 M NaOH. The amount of radiolabelled molecules retained in the cells was counted by β-scintillation counting (Packard model 1900 TR). An aliquot of cell lysate was used in parallel to determine cellular protein concentration.

[5] = Tissue distribution of radiolabeled compounds in mice; settings: iv bolus, equivalent dose of Docetaxel (Docetaxel 2.2, KBA105 5 mg/kg)
Protocol: CD-1 mice were injected with the radiolabeled conjugate at 5 mg/kg via iv bolus injections (21A) or […] of radiolabeled Docetaxel (21B). At the indicated times (1 h, 6 h, 24 h) mice were sacrificed and perfused with saline for 8 min. Tissues were then collected and radioactivity was measured. Results are expressed in terms of ng/g of tissue.
At the indicated times (1, 6 and 24 hours), whole body perfusion was performed for 8 min with saline at a flow rate of 8 ml/min after […] hours iv bolus injections.
After radiolabeling free iodine was remove. Mice were injected with Docetaxel-[^125I]-Katana peptide conjugate at 5 mg/kg. Plasma was collected at the indicated times. After 1, 2 and 24 hours some mice were perfused with saline, sacrificed and tissues were collected. Radioactivity in the plasma and tissues were measured in a radioactivity counter and results were calculated and expressed in terms of […] for the plasma or ng/g of tissues.

[6] = system: MDA-MB-231 breast cancer cells; experiment: cells; settings: Homo sapiens
Protocol: Breast cancer cells (MDA-MB231) were incubated with increasing concentrations of KBC106 or curcumin. After 72 hrs, thymidine incorporation assay was performed to assess the anti-proliferative properties of both molecules. IC50 values were extracted from the anti-proliferative curves.
as §2, with “curves.” for “curves. In all cases, the Curcumin conjugate (KBC106) had stronger anti-proliferative activity (9-100 fold) than unconjugated Curcumin, as shown in Table 6 below.”
as §3

[7] = system: ovarian (SKOV3 and ES-2) cancer cells; experiment: Cell migration assay by xCELLigence biosensor system, ovarian cancer cells; assay type: cell-based; settings: 2 hours incubation, 2 μM
Protocol: 15A. Cells were incubated for 2 hrs with increasing concentration of Doxorubicin or conjugated Doxorubicin (KBB106) and cell migration was performed. 15B. […] 15C. Progranulin (PGR), a sortilin ligand, also reversed the effect of the Doxorubicin conjugate (KBB106) on ovarian cancer cell (ES-2) migration.
This second cellular assay was also used to screen the different Katana-drug conjugates (FIG. 15). […] However, as shown in FIGS. 15B and 15C, when the cancer cells were incubated with conjugated Doxorubicin (KBB106) in the presence of a sortilin ligand (Neurotensin, Katana peptide or progranulin), the migratory effect of the Doxorubicin conjugate was reversed.
Experiments were carried out using the Real-Time Cell Analyser (RTCA) Dual-Plate (DP) Instrument, the xCELLigence system (Roche Diagnostics, QC). This system was used according to the instructions of the supplier. Then, cells (25 000 cells/well) were seeded in serum-free medium onto a CIM-Plates 16 (Roche diagnostics). […] After 30 min of adhesion, cell migration was monitored every 5 min for 8 h. The impedance value was measured by the RTCA DP Instrument and was expressed as an arbitrary unit called the Cell Index which reflecting the amount of migration-active cells. […]

[8] = system: HCC-1954 breast cancer cells; experiment: cells; assay type: cell-based; settings: Homo sapiens, HCC1954; HCC-1954 (HER2+; Lapatinib resistant); Table 6
Protocol: as §2, §3

[9] = system: HT-29 colorectal cancer cells; experiment: cells; assay type: cell-based; settings: Homo sapiens, Table 6
Protocol: as §2, §3

[10] = system: HCC-1569 breast cancer cells; experiment: cells; assay type: cell-based; settings: Homo sapiens, HCC1569; HCC-1569 (HER2+; Herceptin resistant); Table 6
Protocol: as §2, §3

cancer cells = experiment: Apoptosis by fluorescence microscopy (alpha-tubulin, DAPI); assay type: cell-based; settings: fluorescent microscopy
Protocol: In FIG. 30, it was further evaluated whether the Curcumin conjugate (KBC106) induces cancer cell apoptosis. Cancer cells were incubated with KBC106 and curcumin. First column, uptake for both molecules can be monitored by fluorescent microscopy. Higher accumulation of fluorescence was detected for KBC1006 indicating a better cell internalization for the conjugate. Curcumin accumulation was barely visible in these cancer cells. […] In the third column, cell nucleus was labelled with the fluorescent dye DAPI.

P-gp (MDR1), sequence (P08183 whole entry): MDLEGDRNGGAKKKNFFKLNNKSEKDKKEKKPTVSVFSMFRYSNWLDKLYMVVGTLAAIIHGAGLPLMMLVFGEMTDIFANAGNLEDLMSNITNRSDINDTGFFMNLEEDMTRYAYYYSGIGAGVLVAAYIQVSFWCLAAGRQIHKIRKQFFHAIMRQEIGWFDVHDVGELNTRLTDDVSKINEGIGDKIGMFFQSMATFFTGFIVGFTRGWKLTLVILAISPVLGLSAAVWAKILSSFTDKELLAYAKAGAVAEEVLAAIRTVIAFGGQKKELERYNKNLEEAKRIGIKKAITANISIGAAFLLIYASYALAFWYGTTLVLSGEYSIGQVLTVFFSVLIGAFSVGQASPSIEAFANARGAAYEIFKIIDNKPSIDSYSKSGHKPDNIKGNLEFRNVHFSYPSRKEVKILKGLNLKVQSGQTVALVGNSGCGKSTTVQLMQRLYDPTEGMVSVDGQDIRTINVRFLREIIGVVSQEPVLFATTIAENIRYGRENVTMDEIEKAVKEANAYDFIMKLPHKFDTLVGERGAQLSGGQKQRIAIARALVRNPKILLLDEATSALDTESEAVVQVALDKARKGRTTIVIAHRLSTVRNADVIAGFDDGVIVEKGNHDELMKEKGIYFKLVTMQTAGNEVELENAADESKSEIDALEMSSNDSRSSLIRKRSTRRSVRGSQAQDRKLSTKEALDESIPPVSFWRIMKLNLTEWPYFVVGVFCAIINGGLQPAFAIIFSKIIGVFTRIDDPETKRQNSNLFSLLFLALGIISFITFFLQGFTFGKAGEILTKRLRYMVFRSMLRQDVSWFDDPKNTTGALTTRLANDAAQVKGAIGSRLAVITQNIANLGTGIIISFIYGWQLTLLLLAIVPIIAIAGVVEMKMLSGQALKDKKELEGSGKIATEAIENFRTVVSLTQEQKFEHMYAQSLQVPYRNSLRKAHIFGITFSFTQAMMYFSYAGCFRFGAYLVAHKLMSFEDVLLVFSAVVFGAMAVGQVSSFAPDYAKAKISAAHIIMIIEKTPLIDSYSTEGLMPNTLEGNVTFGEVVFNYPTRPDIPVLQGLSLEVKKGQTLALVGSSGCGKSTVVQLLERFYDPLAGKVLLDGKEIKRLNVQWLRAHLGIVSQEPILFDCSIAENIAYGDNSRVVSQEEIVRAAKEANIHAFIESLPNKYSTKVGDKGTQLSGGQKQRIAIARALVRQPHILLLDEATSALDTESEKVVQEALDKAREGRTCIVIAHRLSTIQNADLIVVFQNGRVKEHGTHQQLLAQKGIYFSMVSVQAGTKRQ

- IC50 ([1]; Table 4, 2 or 3 days): 0.0013 µM
- IC50 ([2]; SK-MEL-28 (Skin), Table 4, 2 or 3 days): 0.00069 µM
- IC50 (A-375 skin cancer cells; A-375 (Skin), Table 4, 2 or 3 days): 0.00092 µM
- increase of accumulation in the presence of cyclosporin A (P-gp (MDR1)): 2 fold
- Area under the curve (AUC1-24) ([5]; Brain): 34 ng·h/mL
- Area under the curve (AUC1-24) ([5]; Heart): 656 ng·h/mL
- Area under the curve (AUC1-24) ([5]; Kidney): 1072 ng·h/mL
- Area under the curve (AUC1-24) ([5]; Liver): 652 ng·h/mL
- Area under the curve (AUC1-24) ([5]; Lung): 614 ng·h/mL
- Area under the curve (AUC1-24) ([5]; Mammary): 823 ng·h/mL
- Area under the curve (AUC1-24) ([5]; Ovary): 1523 ng·h/mL
- Area under the curve (AUC1-24) ([5]; Spleen): 457 ng·h/mL
- IC50 ([6]; MDA-MB-231): 0.00068 µM
SMILES: CC(=O)O[C@@]12CO[C@@H]1C[C@H](O)[C@@]1(C)C(=O)[C@H](O)C3=C(C)[C@@H](OC(=O)[C@H](O)[C@@H](NC(=O)OC(C)(C)C)c4ccccc4)C[C@@](O)([C@@H](OC(=O)c4ccccc4)[C@H]21)C3(C)C [Docetaxel, docetaxel, reference compound]
- plasma half-life reported in the literature [3]: 1 h
- tumor luminescence increase compared to initial tumor luminescence ([4]; D74 post-treatment, Docetaxel 15 mg/kg/week): 100%
- body weight loss (SKOV3 cancer cells): ~20%

SMILES: CCCC[C@H](NC(=O)[C@H](CC(N)=O)NC(=O)[C@H](CCCNC(=N)N)NC(=O)[C@@H](NC(=O)CNC(=O)[C@H](C)NC(=O)[C@H](CCCCNC(=O)CCC(=O)O[C@@H](C(=O)O[C@H]1C[C@@]2(O)[C@@H](OC(=O)c3ccccc3)[C@@H]3[C@]4(OC(C)=O)CO[C@@H]4C[C@H](O)[C@@]3(C)C(=O)[C@H](O)C(=C1C)C2(C)C)[C@@H](NC(=O)OC(C)(C)C)c1ccccc1)NC(=O)[C@H](C)NC(=O)[C@H](CCCNC(=N)N)NC(=O)[C@@H](NC(=O)CNC(C)=O)C(C)C)C(C)C)C(=O)N[C@@H](Cc1ccccc1)C(=O)N[C@@H](CCCCNC(=O)CCC(=O)O[C@@H](C(=O)O[C@H]1C[C@@]2(O)[C@@H](OC(=O)c3ccccc3)[C@@H]3[C@]4(OC(C)=O)CO[C@@H]4C[C@H](O)[C@@]3(C)C(=O)[C@H](O)C(=C1C)C2(C)C)[C@@H](NC(=O)OC(C)(C)C)c1ccccc1)C(=O)N[C@@H](CO)C(=O)N[C@@H](CCC(=O)O)C(=O)N[C@@H](CO)C(=O)N[C@@H](Cc1ccc(O)cc1)C(=O)O [KBA-106, Acetyl-GVRAK(docetaxel)AGVRN(Nle)FK(docetaxel)SESY] (Ac-GVRAK(X1)AGVRN[Nle]FK(X1)SESY-OH; C-terminus assumed)
- tumor luminescence decrease compared to initial tumor luminescence ([4]; D74 post-treatment, KBA106 50 mg/kg/week): 100%
- residual tumor burden (remaining luminescence) ([4]; Day 74 post-treatment, KBA106 50 mg/kg/week): no luminescence was detectable
- effect on cell migration [7]: almost completely abolished the cellular capacity of these cells to migrate

- IC50 ([1]; Table 6): 14.4 µM
- IC50 ([2]; SK-MEL-28, Table 6): 12.5 µM
- IC50 (A-375 skin cancer cells; A-375, Table 6): 20.9 µM
- IC50 [8]: 12 µM
- IC50 [9]: 51.3 µM
- IC50 [10]: 14.8 µM
- IC50 ([6]; MDA-MB-231, 72 h): 13.4 µM
SMILES: COc1cc(/C=C/C(=O)CC(=O)/C=C/c2ccc(O)c(OC)c2)ccc1O [Curcumin, curcumin]
- induction of apoptosis (nucleus fragmentation, DAPI) (cancer cells): does not
